PubChem BioAssay AID330 (DTP/NCI, 2004)
“And” between values parts separate entries of the source, which are not always exact repeats. Equal values may be shown once. Toxic doses and inconclusive results are not listed.

Test system: P388 leukemia ip, CD2F1 mice, survival T/C
Assay: NCI In Vivo Anticancer Drug Screen. Data for tumor model P388 Leukemia (intraperitoneal) in CD2F1 (CDF1) mice
Details: endpoint: median survival time, higher = longer survival
Procedure, shortened: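 Mice carrying the transplanted tumor received test compound or vehicle. Survival was recorded in each group, and the value is the treated-group measurement divided by that of the vehicle-treated control group.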

[1] = dose: 100.0 mg/kg/injection, schedule: Q04DX003 (ip), vehicle: saline with Tween-80
[2] = dose: 200.0 mg/kg/injection, schedule: Q04DX003 (ip), vehicle: saline with Tween-80
[3] = dose: 400.0 mg/kg/injection, schedule: Q04DX003 (ip), vehicle: saline with Tween-80
[4] = dose: 50.0 mg/kg/injection, schedule: Q01DX005 (ip), vehicle: Klucel (hydroxypropylcellulose) (HPC)
[5] = dose: 100.0 mg/kg/injection, schedule: Q01DX005 (ip), vehicle: Klucel (hydroxypropylcellulose) (HPC)
[6] = dose: 60.0 mg/kg/injection, schedule: Q01DX005 (ip), vehicle: saline with Tween-80
[7] = dose: 120.0 mg/kg/injection, schedule: Q01DX005 (ip), vehicle: saline with Tween-80
[8] = dose: 240.0 mg/kg/injection, schedule: Q01DX005 (ip), vehicle: saline with Tween-80
[9] = dose: 50.0 mg/kg/injection, schedule: Q01DX009 (ip), vehicle: saline with Tween-80
[10] = dose: 100.0 mg/kg/injection, schedule: Q01DX009 (ip), vehicle: saline with Tween-80
[11] = dose: 12.5 mg/kg/injection, schedule: Q01DX009 (ip), vehicle: Klucel (hydroxypropylcellulose) (HPC)
[12] = dose: 25.0 mg/kg/injection, schedule: Q01DX009 (ip), vehicle: Klucel (hydroxypropylcellulose) (HPC)
[13] = dose: 50.0 mg/kg/injection, schedule: Q01DX009 (ip), vehicle: Klucel (hydroxypropylcellulose) (HPC)
[14] = dose: 12.5 mg/kg/injection, schedule: Q01DX009 (ip), vehicle: saline
[15] = dose: 25.0 mg/kg/injection, schedule: Q01DX009 (ip), vehicle: saline
[16] = dose: 12.5 mg/kg/injection, schedule: Q01DX009 (ip), vehicle: distilled water + Tween-80
[17] = dose: 25.0 mg/kg/injection, schedule: Q01DX009 (ip), vehicle: distilled water + Tween-80
[18] = dose: 50.0 mg/kg/injection, schedule: Q01DX009 (ip), vehicle: distilled water + Tween-80
[19] = dose: 100.0 mg/kg/injection, schedule: Q01DX009 (ip), vehicle: distilled water + Tween-80

## O=C(O)c1cc(I)cc(I)c1
dose: 37.5 mg/kg/injection, schedule: Q01DX009 (ip), vehicle: saline with Tween-80
  T/C: 99 % of control
dose: 75.0 mg/kg/injection, schedule: Q01DX009 (ip), vehicle: saline with Tween-80
  T/C: 104 % of control
[1]
  T/C: 98 % of control
dose: 150.0 mg/kg/injection, schedule: Q01DX009 (ip), vehicle: saline with Tween-80
  T/C: 95 % of control
[2]
  T/C: 96 % of control
[3]
  T/C: 96 % of control

## CC1=CC(=O)C2C(CC1)C2(C)C (stereo not drawn)
dose: 100.0 mg/kg/injection, schedule: Q04DX003 (ip), vehicle: saline + Tween-80 + alcohol
  T/C: 102 % of control
dose: 200.0 mg/kg/injection, schedule: Q04DX003 (ip), vehicle: saline + Tween-80 + alcohol
  T/C: 95 % of control
dose: 400.0 mg/kg/injection, schedule: Q04DX003 (ip), vehicle: saline + Tween-80 + alcohol
  T/C: 91 % of control

## Nc1ccc2c(=O)[nH]cnc2c1
dose: 12.0 mg/kg/injection, schedule: Q01DX005 (ip), vehicle: Klucel (hydroxypropylcellulose) (HPC)
  T/C: 101 % of control
dose: 25.0 mg/kg/injection, schedule: Q01DX005 (ip), vehicle: Klucel (hydroxypropylcellulose) (HPC)
  T/C: 108 % of control
[4]
  T/C: 106 % of control and 116 % of control
[5]
  T/C: 104 % of control

## Cc1cc(C)n(C2=NC3(c4ccc(Cl)cc4)NC(=O)NC3(c3ccc(Cl)cc3)N2)n1 (stereo not drawn)
dose: 50.0 mg/kg/injection, schedule: Q04DX002 (ip), vehicle: saline with Tween-80
  T/C: 96 % of control
dose: 100.0 mg/kg/injection, schedule: Q04DX002 (ip), vehicle: saline with Tween-80
  T/C: 97 % of control
dose: 200.0 mg/kg/injection, schedule: Q04DX002 (ip), vehicle: saline with Tween-80
  T/C: 93 % of control

## CCCCCC(=O)C(C)(c1nc2nnc(NC(=O)Nc3ccc(Cl)cc3)n2[nH]c1=O)c1nc2nnc(NC(=O)Nc3ccc(Cl)cc3)n2[nH]c1=O
[6]
  T/C: 103 % of control
[7]
  T/C: 98 % of control
[8]
  T/C: 97 % of control

## N#CCOc1ccccc1
dose: 3.12 mg/kg/injection, schedule: Q01DX009 (ip), vehicle: other
  T/C: 101 % of control
dose: 6.25 mg/kg/injection, schedule: Q01DX009 (ip), vehicle: other
  T/C: 102 % of control
dose: 12.5 mg/kg/injection, schedule: Q01DX009 (ip), vehicle: other
  T/C: 99 % of control
dose: 25.0 mg/kg/injection, schedule: Q01DX009 (ip), vehicle: other
  T/C: 106 % of control

## COc1cc(/C=C2\NC(=S)N(c3ccccc3)C2=O)ccc1O
dose: 50.0 mg/kg/injection, schedule: Q01DX005 (ip), vehicle: saline with Tween-80
  T/C: 100 % of control and 109 % of control
dose: 100.0 mg/kg/injection, schedule: Q01DX005 (ip), vehicle: saline with Tween-80
  T/C: 100 % of control and 101 % of control and 86 % of control
dose: 200.0 mg/kg/injection, schedule: Q01DX005 (ip), vehicle: saline with Tween-80
  T/C: 100 % of control and 101 % of control and 86 % of control
dose: 400.0 mg/kg/injection, schedule: Q01DX005 (ip), vehicle: saline with Tween-80
  T/C: 99 % of control and 100 % of control and 104 % of control

## CCCCCCCCN1CCCN(/N=C/c2c3c(O)c4c(O)c(C)c5c(c4c2O)C(=O)C(C)(O/C=C/C(OC)C(C)C(OC(C)=O)C(C)C(O)C(C)C(O)C(C)/C=C/C=C(C)C(=O)N3)O5)CC1 (stereo not drawn)
[9]
  T/C: 97 % of control
[10]
  T/C: 100 % of control
dose: 200.0 mg/kg/injection, schedule: Q01DX009 (ip), vehicle: saline with Tween-80
  T/C: 91 % of control

## CNS(=O)(=O)c1c([N+](=O)[O-])ncn1C
[11]
  T/C: 109 % of control
[12]
  T/C: 109 % of control and 115 % of control
[13]
  T/C: 113 % of control
dose: 100.0 mg/kg/injection, schedule: Q01DX009 (ip), vehicle: Klucel (hydroxypropylcellulose) (HPC)
  T/C: 123 % of control

## Cc1ncc(CO)c(CO)c1OCC(O)CN1CCN(c2ccc(F)cc2)CC1 (stereo not drawn)
[6]
  T/C: 99 % of control
[7]
  T/C: 98 % of control
[8]
  T/C: 104 % of control

## CC(C)=NOC1CCCCC1O (stereo not drawn)
[1]
  T/C: 96 % of control
[2]
  T/C: 99 % of control
[3]
  T/C: 106 % of control

## CCN(CC)CCCCCCCNc1cc(OC)cc2c(C)ccnc12
dose: 6.25 mg/kg/injection, schedule: Q01DX009 (ip), vehicle: saline
  T/C: 90 % of control
[14]
  T/C: 93 % of control
[15]
  T/C: 99 % of control

## c1ccc(C2OCCN2c2ccccc2)cc1 (stereo not drawn)
dose: 12.5 mg/kg/injection, schedule: Q01DX001 (ip), vehicle: saline with Tween-80
  T/C: 107 % of control
dose: 25.0 mg/kg/injection, schedule: Q01DX001 (ip), vehicle: saline with Tween-80
  T/C: 107 % of control
dose: 50.0 mg/kg/injection, schedule: Q01DX001 (ip), vehicle: saline with Tween-80
  T/C: 107 % of control
dose: 100.0 mg/kg/injection, schedule: Q01DX001 (ip), vehicle: saline with Tween-80
  T/C: 101 % of control

## CCOC(=O)c1ccc(NC(=O)Nc2scc[n+]2C)cc1
[16]
  T/C: 93 % of control
[17]
  T/C: 102 % of control
[18]
  T/C: 108 % of control
[19]
  T/C: 100 % of control
dose: 200.0 mg/kg/injection, schedule: Q01DX009 (ip), vehicle: distilled water + Tween-80
  T/C: 90 % of control

## CC(C)(S)[C@H]1NC(=O)NC1=O
[4]
  T/C: 99 % of control
[5]
  T/C: 99 % of control
dose: 200.0 mg/kg/injection, schedule: Q01DX005 (ip), vehicle: Klucel (hydroxypropylcellulose) (HPC)
  T/C: 103 % of control

## COc1ccc(-n2c(=O)c(N=Nc3ccccc3OC)c(O)n(-c3ccccc3Cl)c2=S)cc1
dose: 50.0 mg/kg/injection, schedule: Q01DX001 (ip), vehicle: Klucel (hydroxypropylcellulose) (HPC)
  T/C: 100 % of control
dose: 100.0 mg/kg/injection, schedule: Q01DX001 (ip), vehicle: Klucel (hydroxypropylcellulose) (HPC)
  T/C: 99 % of control
dose: 200.0 mg/kg/injection, schedule: Q01DX001 (ip), vehicle: Klucel (hydroxypropylcellulose) (HPC)
  T/C: 93 % of control

## CCCC[N+]1(C)CCC(OC(=O)C(O)(c2ccccc2)C2CCCC2)C1 (stereo not drawn)
[11]
  T/C: 95 % of control
[12]
  T/C: 90 % of control
[13]
  T/C: 98 % of control and 89 % of control

## CCOC(=O)c1nc(OCC)nc(OCC)c1C#CCO
[16]
  T/C: 95 % of control
[17]
  T/C: 93 % of control
[18]
  T/C: 102 % of control
[19]
  T/C: 98 % of control

## COC(OC)C(C)N1CCCCC1 (stereo not drawn)
[14]
  T/C: 104 % of control
[15]
  T/C: 97 % of control
dose: 50.0 mg/kg/injection, schedule: Q01DX009 (ip), vehicle: saline
  T/C: 99 % of control and 96 % of control

## COc1cc(C2c3cc4c(cc3[C@@H](OC3OC5CO[C@@H](C)OC5C(O)C3O)[C@H]3COC(=O)C23)OCO4)cc(OC)c1OC (stereo partly drawn)
dose: 16.0 mg/kg/injection, schedule: Q01DX005 (ip), vehicle: saline
  T/C: 163 % of control
dose: 32.0 mg/kg/injection, schedule: Q01DX005 (ip), vehicle: saline
  T/C: 166 % of control
dose: 64.0 mg/kg/injection, schedule: Q01DX005 (ip), vehicle: saline
  T/C: 153 % of control

## CCOC(=O)C1C2CCC(O2)C1C#N (stereo not drawn)
dose: 15.0 mg/kg/injection, schedule: Q01DX005 (ip), vehicle: saline with Tween-80
  T/C: 100 % of control
dose: 30.0 mg/kg/injection, schedule: Q01DX005 (ip), vehicle: saline with Tween-80
  T/C: 101 % of control
[6]
  T/C: 93 % of control

## O=[N+]([O-])c1cc2no[n+]([O-])c2cc1N1CCOCC1
dose: 3.75 mg/kg/injection, schedule: Q01DX009 (ip), vehicle: saline
  T/C: 112 % of control and 88 % of control
dose: 7.5 mg/kg/injection, schedule: Q01DX009 (ip), vehicle: saline
  T/C: 101 % of control and 92 % of control
dose: 15.0 mg/kg/injection, schedule: Q01DX009 (ip), vehicle: saline
  T/C: 91 % of control and 97 % of control
dose: 30.0 mg/kg/injection, schedule: Q01DX009 (ip), vehicle: saline
  T/C: 103 % of control and 96 % of control

## CCCCCCCOCC(=O)O
[9]
  T/C: 100 % of control
[10]
  T/C: 94 % of control

## C=CCCOC1CCCCO1 (stereo not drawn)
dose: 50.0 mg/kg/injection, schedule: Q01DX009 (ip), vehicle: other
  T/C: 104 % of control
dose: 100.0 mg/kg/injection, schedule: Q01DX009 (ip), vehicle: other
  T/C: 104 % of control
dose: 200.0 mg/kg/injection, schedule: Q01DX009 (ip), vehicle: other
  T/C: 100 % of control
